Experimental data as given in paper PMC10745768, “Stereoselective Synthesis and Antiproliferative Activity of Steviol-Based Diterpene 1,3-Aminoalcohol Regioisomers” (Molecules, 2023).

What was measured:
[1] = test system: MDA-MB-231 cells; experiment: MTT antiproliferative assay, MDA-MB-231; assay type: cell-based; conditions: Homo sapiens; for inhibition at 10 µM: MDA-MB-231, 10 μM; for inhibition at 10 µM / inhibition at 30 µM: 72 h, read-out: Growth inhibition (%) ± SEM; for inhibition at 30 µM: MDA-MB-231, 30 μM
Description: (§1) The in vitro anticancer effects of the presented compounds were assessed using the standard MTT [3-(4,5-dimethylthiazol2-yl)-2,5-diphenyltetrazolium bromide] assay on the following human cancer cell lines: cervical (HeLa and SiHa), breast (MCF-7 and MDA-MB-231) and ovarian cancer (A2780). The selectivity of the tested compounds was determined on murine embryonal fibroblast cells (NIH/3T3). The utilised cell lines were purchased from the European Collection of Cell Cultures (Salisbury, UK). The cells were cultivated in Eagle’s minimal essential medium supplemented with 10% fetal bovine serum, 1% non-essential amino acids and 1% antibiotic-antimycotic complex (penicillin, streptomycin, amphotericin B) at 37 °C in a humidified atmosphere containing 5% CO2. All media and supplements were purchased from Lonza Group Ltd. (Basel, Switzerland). The cancer cells were seeded into 96-well plates (5000 cells/well) and incubated overnight, and the test compounds were applied in two different concentrations (10 µM and 30 µM) and incubated for another 72 h under cell-culturing conditions. […] After 72 h, 20 µL of the 5 mg/mL MTT solution was added to each well, and the plates were incubated for 4 h. The medium was removed, and the formazan crystals produced by the mitochondrial activity were dissolved in dimethyl sulfoxide (DMSO) via shaking at 37 °C for 30 min. The absorbances were measured at 545 nm using a microplate reader (SPECTROStar Nano, BMG Labtech, Offenburg, Germany). The reference agent was cisplatin, which is a widely used cytotoxic agent. The IC50 values were calculated using sigmoid curve fitting. Two independent experiments were performed with five parallel wells for each condition. Calculations were performed using the GraphPad Prism 9 software (GraphPad Software Inc., San Diego, CA, USA).

[2] = test system: SiHa cells; experiment: MTT antiproliferative assay, SiHa; assay type: cell-based; conditions: Homo sapiens, 72 h; for inhibition at 10 µM / inhibition at 30 µM: read-out: Growth inhibition (%) ± SEM
Description: as §1

[3] = test system: NIH/3T3 fibroblast cells; experiment: MTT assay on non-malignant fibroblasts (selectivity); assay type: cell-based, murine; conditions: Mus musculus, NIH3T3; for inhibition at 10 µM: NIH/3T3, 10 μM; for inhibition at 10 µM / inhibition at 30 µM: 72 h, read-out: Growth inhibition (%) ± SEM; for inhibition at 30 µM: NIH/3T3, 30 μM
Description: as §1

[4] = test system: HeLa cells; experiment: MTT antiproliferative assay, HeLa; assay type: cell-based; conditions: Homo sapiens, 72 h; for inhibition at 10 µM / inhibition at 30 µM: read-out: Growth inhibition (%) ± SEM
Description: as §1

[5] = test system: MCF-7 cells; experiment: MTT antiproliferative assay, MCF-7; assay type: cell-based; conditions: Homo sapiens, MCF7; for inhibition at 10 µM: MCF-7, 10 μM; for inhibition at 10 µM / inhibition at 30 µM: 72 h, read-out: Growth inhibition (%) ± SEM; for inhibition at 30 µM: MCF-7, 30 μM
Description: as §1

[6] = test system: A2780 cells; experiment: MTT antiproliferative assay, A2780; assay type: cell-based; conditions: Homo sapiens; for inhibition at 10 µM: A2780, 10 μM; for inhibition at 10 µM / inhibition at 30 µM: 72 h, read-out: Growth inhibition (%) ± SEM; for inhibition at 30 µM: A2780, 30 μM
Description: as §1

| SMILES | inhibition at 10 µM [1] | inhibition at 30 µM [1] | inhibition at 10 µM [2] | inhibition at 30 µM [2] | inhibition at 10 µM [3] | inhibition at 30 µM [3] | melting point | inhibition at 10 µM [4] | inhibition at 30 µM [4] | inhibition at 10 µM [5] | inhibition at 30 µM [5] | inhibition at 10 µM [6] | inhibition at 30 µM [6] | IC50 ([1]; MDA-MB-231, 72 h, read-out: calculated IC50) | IC50 ([2]; read-out: calculated IC50) | IC50 ([3]; NIH/3T3, 72 h, read-out: calculated IC50) | IC50 ([4]; read-out: calculated IC50) | IC50 ([5]; MCF-7, 72 h, read-out: calculated IC50) | IC50 ([6]; A2780, 72 h, read-out: calculated IC50) |
| --- | --- | --- | --- | --- | --- | --- | --- | --- | --- | --- | --- | --- | --- | --- | --- | --- | --- | --- | --- |
| CC[C@H](N[C@@H]1C[C@]23CC[C@H]4[C@@](C)(CCC[C@@]4(C)C(=O)OC)[C@@H]2CC[C@@]1(CO)C3)c1ccccc1 [Compound 11, (4R,4aS,6aR,8R,9R,11aR,11bS)-Methyl 9-(hydroxymethyl)-4,11b-dimethyl-8-(((S)-1-phenylpropyl)amino)tetradecahydro-6a,9-methanocyclohepta[a]naphthalene-4-carboxylate] | < 20% | 90.8 ± 1.35% | < 20% | 83.7 ± 3.19% | 22.2 ± 2.22% | 93.6 ± 2.02% | 88 to 95 °C | < 20% | 94.48 ± 0.84% | 49.5 ± 3.06% | 96.94 ± 0.57% | 74.2 ± 2.1% | 98.12 ± 0.3% | – | – | – | – | – | – |
| CC[C@@H](N[C@@H]1C[C@]23CC[C@H]4[C@@](C)(CCC[C@@]4(C)C(=O)OC)[C@@H]2CC[C@@]1(CO)C3)c1ccccc1 [Compound 12, (4R,4aS,6aR,8R,9R,11aR,11bS)-Methyl 9-(hydroxymethyl)-4,11b-dimethyl-8-(((R)-1-phenylpropyl)amino)tetradecahydro-6a,9-methanocyclohepta[a]naphthalene-4-carboxylate] | < 20% | 91.6 ± 2.36% | < 20% | 82.4 ± 2.09% | 29.2 ± 1.33% | 95.53 ± 0.49% | 174 to 176 °C | < 20% | 90.8 ± 3.71% | 48.6 ± 0.5% | 92.3 ± 2.89% | 64.7 ± 1.95% | 98.32 ± 0.23% | – | – | – | – | – | – |
| COC(=O)[C@]1(C)CCC[C@@]2(C)[C@@H]3CC[C@@]4(CO)C[C@]3(CC[C@@H]21)C[C@H]4N[C@H](C)c1cccc2ccccc12 [Compound 13, (4R,4aS,6aR,8R,9R,11aR,11bS)-Methyl 9-(hydroxymethyl)-4,11b-dimethyl-8-(((R)-1-(naphthalen-1-yl)ethyl)amino)tetradecahydro-6a,9-methanocyclohepta[a]naphthalene-4-carboxylate] | < 20% | 94.3 ± 1.83% | 24.2 ± 3.46% | 87.9 ± 1.62% | < 20% | 96.88 ± 0.74% | 180 to 185 °C | < 20% | 92.3 ± 2.7% | 56.7 ± 3.88% | 96.84 ± 0.55% | 83.7 ± 1.95% | 99.02 ± 0.39% | – | – | – | – | – | – |
| COC(=O)[C@]1(C)CCC[C@@]2(C)[C@@H]3CC[C@@]4(CO)C[C@]3(CC[C@@H]21)C[C@H]4N[C@@H](C)c1cccc2ccccc12 [Compound 14, (4R,4aS,6aR,8R,9R,11aR,11bS)-Methyl 9-(hydroxymethyl)-4,11b-dimethyl-8-(((S)-1-(naphthalen-1-yl)ethyl)amino)tetradecahydro-6a,9-methanocyclohepta[a]naphthalene-4-carboxylate] | 53.2 ± 2.44% | 95 ± 1.24% | 34.1 ± 2.53% | 88.88 ± 0.87% | 50.4 ± 2.91% | 97.15 ± 0.6% | 151 to 157 °C | 24.6 ± 2.79% | 95.1 ± 1.6% | 78.9 ± 4.11% | 97.44 ± 0.53% | 93.3 ± 1.99% | 99.57 ± 0.35% | – | – | – | – | – | – |
| COC(=O)[C@]1(C)CCC[C@@]2(C)[C@@H]3CC[C@@]4(CO)C[C@]3(CC[C@@H]21)C[C@H]4N[C@H](C)c1ccc2ccccc2c1 [Compound 17, (4R,4aS,6aR,8R,9R,11aR,11bS)-Methyl 9-(hydroxymethyl)-4,11b-dimethyl-8-(((R)-1-(naphthalen-2-yl)ethyl)amino)tetradecahydro-6a,9-methanocyclohepta[a]naphthalene-4-carboxylate] | 91.5 ± 1.24% | 95.03 ± 0.91% | 83.3 ± 1.58% | 86.7 ± 1.74% | 20.5 ± 1.7% | 96.54 ± 0.62% | 150 to 153 °C | 90.5 ± 1.34% | 93.5 ± 2.5% | 86.3 ± 2.86% | 97.42 ± 0.71% | 100.6 ± 0.76% | 100 ± 0.91% | 5.62 µM | 5.37 µM | 8.7 µM | 3.51 µM | 2.47 µM | 4.06 µM |
| COC(=O)[C@]1(C)CCC[C@@]2(C)[C@@H]3CC[C@@]4(CNCc5ccccc5)C[C@]3(CC[C@@H]21)C[C@H]4O [Compound 22, (4R,4aS,6aR,8R,9S,11aR,11bS)-Methyl 9-((benzylamino)methyl)-8-hydroxy-4,11b-dimethyltetradecahydro-6a,9-methanocyclohepta[a]naphthalene-4-carboxylate] | 90.95 ± 0.4% | 89.66 ± 0.28% | 69 ± 2.02% | 80.8 ± 2.91% | 49 ± 1.37% | 94.25 ± 0.45% | 98 to 104 °C | 59.2 ± 6.61% | 90.87 ± 0.35% | 90.6 ± 0.98% | 94.23 ± 0.82% | 69.5 ± 3.98% | 96.04 ± 0.45% | – | – | – | – | – | – |
| COC(=O)[C@]1(C)CCC[C@@]2(C)[C@@H]3CC[C@@]4(CN[C@@H](C)c5ccc6ccccc6c5)C[C@]3(CC[C@@H]21)C[C@H]4O [Compound 30, (4R,4aS,6aR,8R,9S,11aR,11bS)-Methyl 8-hydroxy-4,11b-dimethyl-9-((((S)-1-(naphthalen-2-yl)ethyl)amino)methyl)tetradecahydro-6a,9-methanocyclohepta[a]naphthalene-4-carboxylate] | 50.7 ± 3.21% | 98.7 ± 0.49% | < 20% | 101.4 ± 0.6% | 21.5 ± 0.48% | 100.7 ± 0.2% | 102 to 106 °C | 40.8 ± 0.99% | 94.51 ± 0.19% | 79.5 ± 1.01% | 95.63 ± 0.55% | 33.1 ± 1.23% | 99.71 ± 0.27% | – | – | – | – | – | – |
| COC(=O)C1(C)CCCC2(C)C3CCC4(CN)CC3(CCC12)CC4O [Compound 31, (4. R,4aS,6aR,8R,9S,11aR,11bS)-Methyl 9-(aminomethyl)-8-hydroxy-4,11b-dimethyltetradecahydro-6a,9-methanocyclohepta[a]naphthalene-4-carboxylate] | 49.5 ± 3.47% | 96.82 ± 0.65% | < 20% | 95.68 ± 0.81% | < 20% | 97.62 ± 0.71% | 64 to 68 °C | < 20% | 96.02 ± 0.89% | 72.7 ± 3.15% | 99.42 ± 0.23% | 37.3 ± 1.04% | 97.52 ± 0.8% | – | – | – | – | – | – |
| COC(=O)[C@]1(C)CCC[C@@]2(C)[C@@H]3CC[C@@]4(Cn5cc(-c6ccccc6)nn5)C[C@]3(CC[C@@H]21)CC4=O [Compound 33, (4R,4aS,6aR,9S,11aR,11bS)-Methyl 4,11b-dimethyl-8-oxo-9-((4-phenyl-1H-1,2,3-triazol-1-yl)methyl)tetradecahydro-6a,9-methanocyclohepta[a]naphthalene-4-carboxylate] | < 20% | < 20% | < 20% | < 20% | 54.5 ± 1.93% | 78.9 ± 2.52% | 137 to 140 °C | < 20% | 23.9 ± 5.01% | 57.1 ± 2.13% | 60.3 ± 3.65% | 41.1 ± 1.23% | 51.5 ± 1.41% | – | – | – | – | – | – |
